{"source": "paper PMC3948684", "about": "“Approaches to Improve the Oral Bioavailability and Effects of Novel Anticancer Drugs Berberine and Betulinic Acid” (PLoS ONE, 2014)", "key": {"[1]": {"system": "Caco-2 cell monolayers", "experimental": "Caco-2 cells (passage #29) were cultured at 37°C with culture medium replaced every 2 days in an atmosphere of 5% CO2 and 95% relative humidity. Cells were harvested upon reaching approximately 80-90% confluence with 0.25% trypsin–EDTA. Cells were grown on 1.12 cm^2 0.4 μm pore polycarbonate membrane inserts in 12 mm × 12 transwell permeable support plates (Corning, NY, USA). Caco-2 cells were seeded onto membranes at 50,000 cells/well. Individual wells received 1.5 mL of culture medium at the bottom and 0.5 mL of medium was added to the top of inserts which was changed on alternate days. Confluent monolayers were used for permeability studies at ~21 days post seeding. Transepithelial electrical resistance (TEER) of Caco-2 monolayers was measured prior to all experiments using the EVOM volt-ohm-meter (Millicell-ERS; Millipore, USA) to ensure monolayer integrity. The TEER (Ω·cm^2) values of the cell monolayers were determined by the resistance (Ω) × effective membrane area (cm^2). TEER values were measured across each cell monolayer prior to beginning the experimentation and at the last sample collection time point. Transport studies were initiated by removing culture medium from the apical (A) and basolateral (B) sides of the cell monolayer. […] The effective permeability (Peff) (cm/s) was determined using Eq. 1: […]"}, "[2]": {"assay": "In vitro drug release of BA (USP type II paddle, HPLC)", "assay_type": "physicochemical", "details": "after 24 h; pH 5.8, 2.5% SLS, 37°C", "description": "In vitro drug release study was conducted in PBS (pH 5.8) containing 1% volpo. Briefly, 50 mg of free drug or equivalent amount of SD form of BBR and BA were dispersed in 500 ml of release medium and the drug release profile was studied at pH 5.8. Release studies were performed according to the USP type II paddle method, at 37±0.5°C while stirring constantly at 50 rpm. Samples were withdrawn at different time points, centrifuged and drug content in the samples was analyzed by spectrometric method of analysis. The withdrawn samples were replaced by equal volumes of fresh medium maintained at the same temperature. Except replacing the 1% Volpo with 2.5% SLS, similar conditions were maintained for the in vitro drug release studies of BA in free drug and SD forms. The released BA concentrations were measured by established HPLC method."}, "[3]": {"system": "cleaved caspase-8", "assay": "Real time PCR of tumors", "assay_type": "in vivo, athymic Nu/nu mice", "details": "normalised to β-actin", "description": "(§1) Total RNA was extracted from tumors using RNeasy Kit and quantified by UV method using Nanodrop system. RNA was converted to complementary DNA using RT^2 First Strand Kit and RT^2 SYBR Green ROX qPCR Mastermix as per manufacturer's instructions. p38, Phospho-JNK, Bax, Bcl-2, cleaved caspase 8, cleaved caspase 3, survivin and BAD, mRNA expressions amplification was performed on an ABI 7300 RT-PCR (Applied Biosystems, Carlsbad, CA, USA) and data analysis done with a PCR Array Data Analysis Software (SA Biosciences, Valencia, CA, USA). The mRNA levels of p38, Phospho-JNK, Bax, Bcl-2, cleaved caspase 8, cleaved caspase 3, survivin and BAD and β-actin were calculated. The β-actin was a normalization control for gene expression."}, "[4]": {"system": "cleaved caspase-3", "assay": "Real time PCR of tumors", "assay_type": "in vivo, athymic Nu/nu mice", "details": "normalised to β-actin", "description": "as §1"}, "[5]": {"system": "Bax", "assay": "Real time PCR of tumors", "assay_type": "in vivo, athymic Nu/nu mice", "details": "normalised to β-actin", "description": "as §1"}, "[6]": {"system": "Phospho-JNK", "assay": "Real time PCR of tumors", "assay_type": "in vivo, athymic Nu/nu mice", "details": "normalised to β-actin", "description": "as §1"}, "[7]": {"system": "p38", "assay": "Real time PCR of tumors", "assay_type": "in vivo, athymic Nu/nu mice", "details": "normalised to β-actin", "description": "as §1"}, "[8]": {"system": "Bcl-2", "assay": "Real time PCR of tumors", "assay_type": "in vivo, athymic Nu/nu mice", "details": "normalised to β-actin", "description": "as §1"}, "[9]": {"system": "A549 cells", "assay": "In vitro cytotoxicity, crystal violet staining", "assay_type": "cell-based", "details": "Homo sapiens, BA, 72 h treatment", "description": "(§2) NSCLC cells A549 and H1650 were plated in 96 well plates at 10,000 cells/well density. After 24 h, cells were treated with various concentrations of BBR and BA. DMSO (0.1%) treated cells were considered as control cells. After 72 h treatment, cells were fixed in 0.25% gultaraldehyde and stained with 0.05% crystal violet staining. Percent of cell viability or cell kill was calculated by considering DMSO treated control cells as 100% viable (zero % cell kill)."}, "[10]": {"system": "H1650 cells", "assay": "In vitro cytotoxicity, crystal violet staining", "assay_type": "cell-based", "details": "Homo sapiens, NCI-H1650; BA, 72 h treatment", "description": "as §2"}, "[11]": {"system": "H1650 metastatic lung tumors", "assay": "H1650 metastatic lung cancer model", "assay_type": "in vivo, athymic Nu/nu mice", "details": "100 mg/kg orally daily for 3 weeks", "description": "(§3) A549 cells were grown in F12K Medium containing 10% FBS and standard antibiotic mix at 5% CO2 and 37°C. For orthotopic lung tumor model, mice were anesthetized with Isoflurane and a 5 mm skin incision was made to the left chest, 5 mm below the scapula. Hamilton syringes (1 ml) with 28-gauge hypodermic needles were used to inject the cell inoculums through the sixth intercostal space into the left lung. The needle was quickly advanced to a depth of 3 mm and quickly removed after the injection of the A549 cells (2 million/mouse) suspended in 100 µL PBS (pH 7.4) into the lung parenchyma. For metastatic lung tumor models H1650 cells (2 million in 100 µL PBS) were intravenously administered to mice via tail vein. […] Only cell suspensions of >95% viability as determined by tryphan blue exclusion were used. Wounds from the incisions were closed with surgical skin clips. […] Drug treatment was started 2 weeks after the tumor cell implantation. BBR free drug or SD formulation was given orally at the dose of 100 mg/kg daily for 3 weeks. […] Body weights were monitored throughout the study. Animal survival rates were recorded during the study. The lung weights and tumor volumes were used for assessment of therapeutic activity of the treatments. After sacrificing the animals lung weights and tumor nodules were recorded in metastatic tumor models."}, "[12]": {"assay": "Oral pharmacokinetic study", "assay_type": "in vivo, Sprague Dawley rats", "description": "Rats were fasted overnight before the start of the experiments and randomly divided into two experimental groups. […] Pharmacokinetic parameters were analyzed using non-compartmental techniques with WinNonlin® 5.0 software (Pharsight Corporation, Mountain View, CA, USA). SHAM analysis (i.e., Slope, Height, Area, and Moment) utilized plasma concentration-time data to estimate the area under the curve (AUC), apparent terminal elimination rate constant (λz), terminal elimination half-life (t1/2) and the area under the first moment of the plasma concentration–time curve (AUMC). The AUC was calculated for each rat using the piecewise log trapezoidal areas and extrapolated to infinity by dividing λz into the last measured plasma concentration (i.e. Clast/λz). From the values of AUC0_0-∞ and AUMC0-∞, the clearance (CL), mean residence time (MRT) and volume of distribution at tissue equilibrium (Vss) were calculated based on noncompartmental monoexponential assumptions as: CL = Dose/AUC, MRT≅AUMC/AUC and Vss = CL×MRT. The noncompartmental parameters were calculated for each rat before averaging dose groups. The pharmacokinetic parameters such as AUC, Cmax, t1/2, tmax, MRT, etc were compared between the free drug and SD formulations."}, "[13]": {"system": "TUNEL positive apoptotic cells", "assay": "TUNEL assay on orthotopic lung tumor sections", "assay_type": "in vivo, athymic Nu/nu mice", "description": "Terminal deoxynucleotidyl transferase-mediated dUTP nick end labeling (TUNEL) assay was used to study the DNA fragmentation or apoptosis detection. TUNEL assay was performed on 4–5 µm thick sections as per the kit manual. Formalin-fixed tumor tissues were embedded in paraffin and sectioned ([…]). DeadEndTM Colorimetric Apoptosis Detection System (Promega, Madison, WI) allows the recognition of apoptotic nuclei in paraffin-embedded tissue sections fixed on slides according to the manufacturer's protocol. Briefly, the equilibration buffer was added to slides and incubated for 10 minutes followed by 10-minute incubation in […] proteinase K solution. The sections were washed in PBS and incubated with TdT enzyme at 37°C for 1 h in a humidified chamber for incorporation of biotinylated nucleotides at the 3-OH ends of DNA. The slides were incubated in horseradish peroxidase-labeled streptavidin to bind the biotinylated nucleotides followed by detection with stable chromagen DAB. The images on the slides were visualized with an Olympus BX40 light microscope equipped with a computer-controlled digital camera (DP71, Olympus Center Valley, PA, USA). Three slides per group were stained and apoptotic cells were identified by dark brown […] staining."}, "[14]": {"system": "A549 orthotopic lung tumors", "assay": "A549 orthotopic lung cancer model", "assay_type": "in vivo, athymic Nu/nu mice", "details": "100 mg/kg orally daily for 3 weeks", "description": "as §3"}, "[15]": {"details": "Sprague Dawley, rat, plasma, po, 100 mg/kg orally"}}}
{"compound": "Lucifer Yellow", "values": [{"measurement": "mean permeability of paracellular control", "setting": "[1]", "value": "< 0.15", "unit": "×10⁻⁶ cm/s"}]}
{"compound": "C=C(C)[C@@H]1CC[C@]2(C(=O)O)CC[C@]3(C)[C@H](CC[C@@H]4[C@@]5(C)CC[C@H](O)C(C)(C)[C@@H]5CC[C@]43C)[C@@H]12", "note": "[BA free drug, 3β, hydroxy-lup-20(29)-en-28-oic acid]", "values": [{"measurement": "drug release", "setting": "[2]", "value": 11.3, "unit": "%"}, {"measurement": "cleaved caspase-8 mRNA expression higher than control", "setting": "[3]", "value": 1.25, "unit": "fold"}, {"measurement": "cleaved caspase-3 mRNA expression higher than control", "setting": "[4]", "value": 1.30, "unit": "fold"}, {"measurement": "Bax mRNA expression increased compared to control", "setting": "[5]", "value": 1.08, "unit": "fold"}, {"measurement": "Phospho-JNK mRNA expression increased compared to control", "setting": "[6]", "value": 1.69, "unit": "fold"}, {"measurement": "p38 mRNA expression increased compared to control", "setting": "[7]", "value": 1.20, "unit": "fold"}, {"measurement": "Bcl-2 mRNA expression down regulated compared to untreated control", "setting": "[8]", "value": 1.36, "unit": "fold"}, {"measurement": "IC50", "setting": "[9]", "value": "8.92 ± 1.68", "unit": "µg/mL"}, {"measurement": "IC50", "setting": "[10]", "value": "7.25 ± 1.54", "unit": "µg/mL"}, {"measurement": "decrease of tumor nodules in the peripheral lobes", "setting": "[11]", "value": 1.31, "unit": "fold"}, {"measurement": "tumor weights reduced to, compared to untreated control", "setting": "[11]", "value": 75.94, "unit": "%"}, {"measurement": "CL", "setting": "[12]; 100 mg/kg orally", "value": "0.113 ± 0.0175", "unit": "mL/min/kg"}, {"measurement": "AUMC (0-∞)", "setting": "[12]; BA, 100 mg/kg orally", "value": "116.04±23.13", "unit": "µg.h^2/ml"}, {"measurement": "Vd", "setting": "[12]; BA, 100 mg/kg orally", "value": "0.12243 ± 0.01586", "unit": "L/kg"}, {"measurement": "half-life", "setting": "[12]; Sprague Dawley, rat, plasma, po, 100 mg/kg, read-out: t½ (converted)", "value": "12.3 ± 3.68", "unit": "h"}, {"measurement": "MRT", "setting": "[12]; [15]", "value": "15.1 ± 3.86", "unit": "h"}, {"measurement": "Tmax", "setting": "[12]; [15]", "value": "2.36 ± 0.38", "unit": "h"}, {"measurement": "AUC(0-inf)", "setting": "[12]; Sprague Dawley, rat, plasma, po, BA, 100 mg/kg orally", "value": "7260 ± 1650", "unit": "ng·h/mL"}, {"measurement": "Cmax", "setting": "[12]; Sprague Dawley, rat, po, BA, 100 mg/kg orally, plasma", "value": "1160 ± 220", "unit": "ng/mL"}, {"measurement": "increase in TUNEL positive apoptotic cells compared to control tumors", "setting": "[13]", "value": 8.14, "unit": "fold"}, {"measurement": "lung tumor weights", "setting": "[14]", "value": "404.31 ± 29.50", "unit": "mg"}, {"measurement": "reduction in tumor volumes compared to untreated control", "setting": "[14]", "value": 27.72, "unit": "%"}, {"measurement": "reduction in tumor weights compared to untreated control tumors", "setting": "[14]", "value": "Approximately 31.11%"}]}
